Key:
Format in all cases: cell-based
S. aureus SG511 = test: In vitro activity, dilution in liquid medium, M.I.C. on S. aureus SG511; settings: S. aureus SG511, code 011 HT3, incubation twenty-four hours at 37° C.
Procedure: (§1) In vitro activity, method of dilution in liquid medium
(§2) A series of tubes are prepared in which the same quantity of sterile nutritive medium is distributed. Increasing quantities of the product to be studied are distributed into each tube, then each tube is sown with a bacterial strain. After incubation for twenty-four hours in a heating chamber at 37° C., the growth inhibition is evaluated by transillumination, which allows the minimal inhibitory concentrations (M.I.C.) to be determined, expressed in μg/cml.

S. aureus Exp 54146 = test: In vitro activity, dilution in liquid medium, M.I.C. on S. aureus Exp 54146; settings: S. aureus Exp 54146, code 011UC4, incubation twenty-four hours at 37° C.
Procedure: as §1, §2

S. Pyogenes A561 = test: In vitro activity, dilution in liquid medium, M.I.C. on S. Pyogenes A561; settings: S. Pyogenes A561, code 02A1UC1, incubation twenty-four hours at 37° C.
Procedure: as §1, §2

E. coli = test: In vitro activity, dilution in liquid medium, M.I.C. on E. coli 250HT11; settings: code 250HT11, incubation twenty-four hours at 37° C.
Procedure: as §1, §2

E. coli DC2 (permeable) = test: In vitro activity, dilution in liquid medium, M.I.C. on E. coli DC2 (permeable); settings: code 250HT6, incubation twenty-four hours at 37° C.
Procedure: as §1, §2

E. coli (hyperpermeable) = test: In vitro activity, dilution in liquid medium, M.I.C. on E. coli (hyperpermeable); settings: code 250IP5, incubation twenty-four hours at 37° C.
Procedure: as §1, §2

Structure (SMILES)	M.I.C. (S. aureus SG511) [µg/mL]	M.I.C. (S. aureus Exp 54146) [µg/mL]	M.I.C. (S. Pyogenes A561) [µg/mL]	M.I.C. (E. coli) [µg/mL]	M.I.C. (E. coli DC2 (permeable)) [µg/mL]	M.I.C. (E. coli (hyperpermeable)) [µg/mL]
NC(=O)CNC(=O)[C@H]1CC[C@@H]2CN1C(=O)N2OS(=O)(=O)[O-].[Na+] (relative stereo) [Test A, Sodium salt of trans-N-(2-amino-2-oxoethyl)-7-oxo-6-(sulphooxy)-1,6-diazabicyclo[3,2,1]octane-2-carboxamide]	>160	>160	160	160	80	20
[NH-]C(=O)[C@H]1CC[C@@H]2CN1C(=O)N2OS(=O)(=O)[O-].[Na+].[Na+] (relative stereo) [Test B, Sodium salt of trans-7-oxo-6-(sulphooxy)-1,6-diazabicyclo[3,2,1]octane-2-carboxamide]	>160	>160	>160	80	40	10
O=C(NCc1cccnc1)[C@H]1CC[C@@H]2CN1C(=O)N2OS(=O)(=O)[O-].[Na+] (relative stereo) [Test C, Sodium salt of trans-7-oxo-N-(3-pyridinylmethyl)-6-(sulphooxy)-1,6-diazabicyclo[3,2,1] octane-2-carboxamide]	>80	>80	>80	20	20	5
O=C(NCc1ccncc1)[C@H]1CC[C@@H]2CN1C(=O)N2OS(=O)(=O)[O-].[Na+] (relative stereo) [Test D, Sodium salt of trans-7-oxo-N-[(4-pyridinyl)methyl]-6-(sulphooxy)-1,6-diazabicyclo[3,2,1] octane-2-carboxamide]	>80	>80	>80	20	20	2.5
O=C(NCc1ccccc1)[C@H]1CC[C@@H]2CN1C(=O)N2OS(=O)(=O)[O-].[Na+] (relative stereo) [Test E, Sodium salt of trans-7-oxo-N-(phenylmethyl)-6-(sulphooxy)-1,6-diazabicyclo[3,2,1]octane-2-carboxamide]	5	5	1.2	>80	>80	20
O=C(OCc1ccccc1)[C@H]1CC[C@@H]2CN1C(=O)N2OS(=O)(=O)[O-].[Na+] (relative stereo) [Test F, Sodium salt of phenylmethyl trans-7-oxo-6-(sulphooxy)-1,6-diazabicyclo[3,2,1]octane-2-carboxylate]	160	160				

Reference: patent US8178554B2, “Heterocyclic compounds, their preparation and their use as medicaments, in particular as anti-bacterial agents” (priority 2000, dated 2012)
